Results on 16 compounds are retold here after US20080200454A1, “CARBON-LINKED TETRAHYDRO-PYRAZOLO-PYRIDINE MODULATORS OF CATHEPSIN S” (priority 2007, published 2008).

Structures can show the parent of a compound that is named as a salt.

The first test deals with Recombinant human cathepsin S (CatS) (Homo sapiens, UniProt P25774). Description: Recombinant human cathepsin S (CatS) inhibition assay, fluorogenic substrate Z-Valine-Valine-Arginine-AMC.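 Also: Baculovirus-expressed CatS in pH 5.0 sodium acetate buffer with DTT and NaCl, fluorescence read each minute over 20 min, inhibition derived from rate slope.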
Recombinant human cathepsin S (CatS), sequence (P25774 115-331): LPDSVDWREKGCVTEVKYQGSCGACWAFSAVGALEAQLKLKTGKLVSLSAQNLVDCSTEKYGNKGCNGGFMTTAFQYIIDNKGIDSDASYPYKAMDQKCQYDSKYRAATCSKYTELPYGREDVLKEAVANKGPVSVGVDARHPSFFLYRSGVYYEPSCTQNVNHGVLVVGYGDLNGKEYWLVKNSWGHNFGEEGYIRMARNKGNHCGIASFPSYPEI
Conditions: not given
For the compound `CS(=O)(=O)N1CCc2c(c(-c3ccc(Cl)c(C#Cc4ccc(CC(=O)O)cc4)c3)nn2CCCN2CCOCC2)C1` [Example 15, (4-{2-Chloro-5-[5-methanesulfonyl-1-(3-morpholin-4-yl-propyl)-4,5,6,7-tetrahydro-1H-pyrazolo[4,3-c]pyridin-3-yl]-phenylethynyl}-phenyl)-acetic acid, trifluoroacetic acid salt], the IC50 amounted to 150 nM.

As for `CS(=O)(=O)N1CCc2c(c(-c3ccc(Cl)c(C#Cc4ccc5c(c4)CN[C@H](C(=O)N4CCCC4)C5)c3)nn2CCCN2CCOCC2)C1` [Example 466, (3S)-7-({2-Chloro-5-[5-(methylsulfonyl)-1-(3-morpholin-4-ylpropyl)-4,5,6,7-tetrahydro-1H-pyrazolo[4,3-c]pyridin-3-yl]phenyl}ethynyl)-3-(pyrrolidin-1-ylcarbonyl)-1,2,3,4-tetrahydroisoquinoline], the half-maximal inhibitory concentration (IC50) is 50 nM.

In the case of `CS(=O)(=O)N1CCc2c(c(-c3ccc(Cl)c(C#Cc4ccc(CNCc5ccc(Cl)cc5)cc4)c3)nn2CCCN2CCC3(CC2)OCCO3)C1` [Example 335, 1-{4-[(2-Chloro-5-{1-[3-(1,4-dioxa-8-azaspiro[4.5]dec-8-yl)propyl]-5-(methylsulfonyl)-4,5,6,7-tetrahydro-1H-pyrazolo[4,3-c]pyridin-3-yl}phenyl)ethynyl]phenyl}-N-[(4-chlorophenyl)methyl]methanamine], the half-maximal inhibitory concentration (IC50) was 60 nM.

Regarding `CS(=O)(=O)N1CCc2c(c(-c3ccc(Cl)c(CCCc4ccccc4)c3)nn2CCCN2CCOCC2)C1` [Example 63, 3-[4-Chloro-3-(3-phenyl-propyl)-phenyl]-5-methanesulfonyl-1-(3-morpholin-4-yl-propyl)-4,5,6,7-tetrahydro-1H-pyrazolo[4,3-c]pyridine], the IC50 was 1400 nM.

In the case of `CS(=O)(=O)N1CCc2c(c(-c3ccc(Cl)c(C#Cc4ccc(CNCc5ccc(Cl)cc5)cc4)c3)nn2CCCN2CCC(F)CC2)C1` [Example 358, 1-{4-[(2-Chloro-5-{1-[3-(4-fluoropiperidin-1-yl)propyl]-5-(methylsulfonyl)-4,5,6,7-tetrahydro-1H-pyrazolo[4,3-c]pyridin-3-yl}phenyl)ethynyl]phenyl}-N-[(4-chlorophenyl)methyl]methanamine], the IC50 stood at 100 nM.

`CN(C)CCCc1cc(-c2nn(CCCN3CCC(N4CCCC4=O)CC3)c3c2CN(S(C)(=O)=O)CC3)ccc1Cl` [Example 314, 1-(1-{3-[3-{4-Chloro-3-[3-(dimethylamino)propyl]phenyl}-5-(methylsulfonyl)-4,5,6,7-tetrahydro-1H-pyrazolo[4,3-c]pyridin-1-yl]propyl}piperidin-4-yl)pyrrolidin-2-one]: the IC50 was 3660 nM.

For `CS(=O)(=O)N1CCc2c(c(-c3ccc(Cl)c(C#Cc4ccc(O)cc4)c3)nn2CCCN2CCOCC2)C1` [Example 7, 4-{2-Chloro-5-[5-methanesulfonyl-1-(3-morpholin-4-yl-propyl)-4,5,6,7-tetrahydro-1H-pyrazolo[4,3-c]pyridin-3-yl]-phenylethynyl}-phenol], the IC50 was 250 nM.

Turning to `CS(=O)(=O)N1CCc2c(c(-c3ccc(Cl)c(C#Cc4ccc(Cl)cc4)c3)nn2CC(O)CN2CCC(C(N)=O)CC2)C1` (stereo not shown) [Example 128, 1-(3-{3-[4-Chloro-3-(4-chloro-phenylethynyl)-phenyl]-5-methanesulfonyl-4,5,6,7-tetrahydro-pyrazolo[4,3-c]pyridin-1-yl}-2-hydroxy-propyl)-piperidine-4-carboxylic acid amide], the IC50 is 110 nM.

On to `C[C@H]1COCCN1CCCn1nc(-c2ccc(Cl)c(C#Cc3ccc(Cl)c(CNC[C@@H]4CCCO4)c3)c2)c2c1CCN(C(=O)C(N)=O)C2` [Example 267, 2-{3-[4-Chloro-3-(4-chloro-3-{[((2S)-tetrahydro-furan-2-ylmethyl)-amino]-methyl}-phenylethynyl)-phenyl]-1-[3-((3S)-3-methyl-morpholin-4-yl)-propyl]-1,4,6,7-tetrahydro-pyrazolo[4,3-c]pyridin-5-yl}-2-oxo-acetamide], for which the IC50 stood at 10 nM.

For `NC(=O)N1CCc2c(c(-c3ccc(Cl)c(C#Cc4ccc(CNCc5ccc(Cl)cc5)cc4)c3)nn2C[C@@H](O)CN2CCSCC2)C1` [Example 251, (S)-3-(4-Chloro-3-{4-[(4-chloro-benzylamino)-methyl]-phenylethynyl}-phenyl)-1-(2-hydroxy-3-thiomorpholin-4-yl-propyl)-1,4,6,7-tetrahydro-pyrazolo[4,3-c]pyridine-5-carboxylic acid amide], the IC50 was found to be 40 nM.

The test is the same for the next values; noted with them: CatS IC50.
Regarding `CS(=O)(=O)N1CCc2c(c(-c3ccc(Cl)c(C#Cc4ccc(CNCc5ccc(Cl)cc5)cc4)c3)nn2CCCN2CCC(N3CCCCC3=O)CC2)C1` [Example 338, 1′-{3-[3-(4-Chloro-3-{[4-({[(4-chlorophenyl)methyl]amino}methyl)phenyl]ethynyl}phenyl)-5-(methylsulfonyl)-4,5,6,7-tetrahydro-1H-pyrazolo[4,3-c]pyridin-1-yl]propyl}-1,4′-bipiperidin-2-one], the IC50 was determined as 20 nM.

As for `CS(=O)(=O)N1CCc2c(c(-c3ccc(Cl)c(C#Cc4ccc(CNCc5ccco5)cc4)c3)nn2CCCN2CCOCC2)C1` [Example 425, 1-[4-({2-Chloro-5-[5-(methylsulfonyl)-1-(3-morpholin-4-ylpropyl)-4,5,6,7-tetrahydro-1H-pyrazolo[4,3-c]pyridin-3-yl]phenyl}ethynyl)phenyl]-N-(furan-2-ylmethyl)methanamine], the IC50 was found to be 70 nM.

Regarding `Cc1ccccc1CNCc1ccc(C#Cc2cc(-c3nn(CCCN4CCSCC4)c4c3CN(C(N)=O)CC4)ccc2Cl)cc1` [Example 532, 3-(4-Chloro-3-{[4-({[(2-methylphenyl)methyl]amino}methyl)phenyl]ethynyl}phenyl)-1-(3-thiomorpholin-4-ylpropyl)-1,4,6,7-tetrahydro-5H-pyrazolo[4,3-c]pyridine-5-carboxamide], the half-inhibitory concentration (IC50) was 90 nM.

Turning to `NC(=O)C(=O)N1CCc2c(c(-c3ccc(Cl)c(C#Cc4ccc(CNCc5ccc(Cl)cc5)cc4)c3)nn2CCCN2CCC3(CC2)OCCO3)C1` [Example 451, 2-{3-(4-Chloro-3-{[4-({[(4-chlorophenyl)methyl]amino}methyl)phenyl]ethynyl}phenyl)-1-[3-(1,4-dioxa-8-azaspiro[4.5]dec-8-yl)propyl]-1,4,6,7-tetrahydro-5H-pyrazolo[4,3-c]pyridin-5-yl}-2-oxoacetamide], the IC50 stood at 100 nM.

For the compound `CS(=O)(=O)N1CCc2c(c(-c3ccc(Cl)c(C#Cc4ccc5c(c4)CCN(CC4CC4)C5)c3)nn2CCCN2CCOCC2)C1` [Example 505, 6-({2-Chloro-5-[5-(methylsulfonyl)-1-(3-morpholin-4-ylpropyl)-4,5,6,7-tetrahydro-1H-pyrazolo[4,3-c]pyridin-3-yl]phenyl}ethynyl)-2-(cyclopropylmethyl)-1,2,3,4-tetrahydroisoquinoline], the IC50 amounted to 630 nM.

Regarding `CS(=O)(=O)N1CCc2c(c(-c3ccc(Cl)c(C#Cc4ccc(CNCc5ccc(Cl)cc5)cc4)c3)nn2CCCN2CC[C@H](O)C2)C1` [Example 382, (3S)-1-{3-[3-(4-Chloro-3-{[4-({[(4-chlorophenyl)methyl]amino}methyl)phenyl]ethynyl}phenyl)-5-(methylsulfonyl)-4,5,6,7-tetrahydro-1H-pyrazolo[4,3-c]pyridin-1-yl]propyl}pyrrolidin-3-ol], the IC50 was 110 nM.
